Measured values reported in patent US9499486B2, “Kinase inhibitor” (RESPIVERT LIMITED, priority 2014, dated 2016).
Where “and” joins values, the source holds several entries; their conditions need not be identical. Identical values can stand only once. Counter-ions that a name gives are not always drawn. Like-named read-outs stand apart in the source and are kept apart here.

Experiments:
[1] = Solubility in fasted-state simulated colonic fluid (FaSSCoF); assay type: physicochemical; details: pH 6.5, 25° C., 24 h; for solubility thermodynamic at 24 h: fasted-state simulated colonic fluid (FaSSCoF), 25 °C, pH 6.5, fassgf or other biorelevant, thermodynamic from solid
Procedure: The solubility of the compound of the invention in FaSSCoF at pH 6.5 is determined using a modification of a previously-reported procedure (Vertzoni, M., et al. Pharm. Res. 2010, 27, 2187-2196). In place of the bile salt extract employed in the original procedure (which extract is no longer available), the modified procedure uses a mixture of sodium taurochlorate (0.15 g), glycocholic acid (0.15 g), ursodeoxycholic acid (0.05 g), cholic acid (0.05 g), and glycodeoxycholic acid (0.05 g). These five bile acids are ground together with a mortar and pestle to produce a fine white powder that is incorporated into the FaSSCoF, as outlined below.
FaSSCoF medium: Tris(hydroxymethyl)aminomethane (Tris; 0.275 g) and maleic acid (0.44 g) are dissolved in water (35 mL) to give a solution whose pH is adjusted to 6.5 by treatment with 0.5M NaOH (ca. 12 mL). The solution is then made up to 50 mL with water. A portion of this Tris/maleate buffer solution (ca. 25 mL) is added to a 0.5 L round-bottomed flask, before being treated with 0.00565 g of the bile acid mixture described above. Solutions of phosphatidylcholine (0.0111 g) in DCM (0.15 mL) and palmitic acid (0.0013 g) in DCM (0.15 mL) are added, then the organic solvent is evaporated off under reduced pressure at 40° C. until a clear solution, with no perceptible DCM odour, is achieved. The volume of the evaporated solution is adjusted to 50 mL by addition of the remainder of Tris/maleate buffer, then BSA (0.115 g) is added, before being dissolved by gentle agitation.
Solubility Determination: Test compounds are suspended in the pH 6.5 FaSSCoF medium to give a maximum final concentration of 2-10 mg/mL. The suspensions are equilibrated at 25° C. for 24 h, before being filtered through a glass fibre C filter. The filtrates are then diluted as appropriate for injection and quantification by HPLC with reference to a standard. Different volumes of the standard, diluted and undiluted sample solutions are injected and the solubilities are calculated using the peak areas determined by integration of the peak found at the same retention time as the principal peak in the standard injection.

non-mutant kinases = assay type: binding; details: for number of individual kinase hits, S(1): % Ctrl <1; for number of individual kinase hits, S(10): % Ctrl <10; for number of individual kinase hits, S(35): % Ctrl <35
From the text: These assays may be conducted by DiscoverX (formerly Ambit; San Diego, Calif.).

Jurkat cells = experiment: Cell cytotoxicity assay (assay r); assay type: cell-based, human; details: 24 hours
Procedure: 1×10^5 Jurkat cells (immortalised human T lymphocytes) are added to the appropriate number of wells of a 96 well plate in 100 μL of media (RPMI supplemented with 10% foetal bovine serum). 1 μL of DMSO control (final concentration 1.0% v/v) or test compound (final concentration 20, 5 or 1 μg/mL) is added to the wells and incubated at 37° C., 5% CO2. After 24 hours, the plate is centrifuged at 1200 rpm for 3 minutes and the supernatant discarded. Cells are then resuspended in 150 μL (final concentration 7.5 μg/mL) of propidium iodide (PI) in PBS and incubated at 37° C., 5% CO2 for 15 minutes. After 15 minutes, cells are analysed by flow cytometry (BD accuri) using the FL3 window. The % viability is calculated as the % of cells that are PI negative in the test wells normalised to the DMSO control.

[2] = Stability of pharmaceutical formulations (1 mg/mL solutions); assay type: physicochemical; details: for Original Purity: 1 mg/mL in pH 7.2 phosphate buffer, 4.5% mannitol, 3% polyoxyl 40 stearate, before storage; for Osmolality / pH: 1 mg/mL stock solution; for Purity at week n = 1 / Purity at week n = 2 / Purity at week n = 4: 1 mg/mL solution
Procedure: The samples were sonicated to achieve clear solutions having the following properties: Osmolality (mOsm/kg): 310 (Na), 314 (HCl); pH: 7.00 (Na), 7.05 (HCl). 0.5 mL of the stock solutions were diluted to 1 mL with 20% DMSO in water & injected for purity analysis by HPLC. The remaining stock solutions were then split into aliquots of 0.5 mL in HPLC vials, and stored at various conditions in duplicate. Samples were stored at 5 and 25° C., before being analysed by HPLC at 1, 2 and 4 weeks. Separate samples were stored at 40° C. and analysed at 4 weeks.

[3] = Systemic pharmacokinetics and total colon tissue distribution after single oral administration; assay type: in vivo, mouse; details: male, C57BL/6, mouse, mice, oral 5 mg/kg, compound 1 measured
Procedure: Studies were conducted by Sai Life Sciences (Hinjewadi, Pune, India) to investigate the systemic pharmacokinetics and total colon tissue distribution of the compound of the invention. In particular, pharmacokinetic studies were carried out in male C57BL/6 mice following a single oral administration of the compound.

[4] = read-out: pH 6.5 FaSSCoF Solubility Run 1
[5] = listed as Example 1, hydrochloride salt
[6] = stored at 5 ° C., listed as Example 1, hydrochloride salt
[7] = stored at 25 ° C., listed as Example 1, hydrochloride salt
[8] = plasma, read-out: Mean plasma concentration
[9] = total colon, read-out: Mean total colon level
[10] = listed as Example 1, sodium salt
[11] = stored at 5 ° C., listed as Example 1, sodium salt
[12] = stored at 25 ° C., listed as Example 1, sodium salt

Q: For `C#Cc1cc(Nc2nccc(Oc3ccc(NC(=O)Nc4cc(C(C)(C)C)nn4-c4ccc(C)cc4)c4ccccc34)n2)cc(C(=O)NCCOCCOCCOC)c1` [Reference Compound A, 3-((4-((4-(3-(3-(tert-butyl)-1-(p-tolyl)-1H-pyrazol-5-yl)ureido)naphthalen-1-yl)oxy)pyrimidin-2-yl)amino)-5-ethynyl-N-(2-(2-(2-methoxyethoxy)ethoxy)ethyl)benzamide, reference compound], which solubility thermodynamic at 24 h [1, 4] is on record?
A: < 1 µg/mL

Q: What about the solubility thermodynamic at 24 h ([1]; read-out: pH 6.5 FaSSCoF Solubility Run 2) of the same compound?
A: < 1 µg/mL

Q: For `COCC(=O)Nc1cc(Oc2ccc(NC(=O)Nc3cc(C(C)(C)C)nn3-c3ccc(C)cc3)c3ccccc23)ccn1` [Reference Compound, reference compound], which “number of individual kinase hits, S(1)” value (non-mutant kinases; 50 nM) is on record?
A: 7

Q: What about the “number of individual kinase hits, S(10)” value (non-mutant kinases; 50 nM) of the same compound?
A: 32

Q: And the “number of individual kinase hits, S(35)” value (non-mutant kinases; 50 nM)?
A: 67

Q: What about the “number of individual kinase hits, S(1)” value (non-mutant kinases; 500 nM) of the same compound?
A: 45

Q: And the “number of individual kinase hits, S(10)” value (non-mutant kinases; 500 nM)?
A: 105

Q: What about the “number of individual kinase hits, S(35)” value (non-mutant kinases; 500 nM) of the same compound?
A: 143

Q: And the “% Viability at 1 μg/mL” value (Jurkat cells; 1 μg/mL)?
A: 23.5%

Q: And the “% Viability at 5 μg/mL” value (Jurkat cells; 5 μg/mL)?
A: 18.9%

Q: What about the “% Viability at 20 μg/mL” value (Jurkat cells; 20 μg/mL) of the same compound?
A: 17.3%

Q: With `COc1cc(Nc2cc(Oc3ccc(NC(=O)Nc4cc(C(C)(C)C)cc(NS(C)(=O)=O)c4OC)c4ccccc34)ccn2)ccc1C(=O)O` [1 (hydrochloride salt), 4-((4-((4-(3-(5-(tert-Butyl)-2-methoxy-3-(methylsulfonamido)phenyl)ureido)naphthalen-1-yl)oxy)pyridin-2-yl)amino)-2-methoxybenzoic acid] as the compound, how does the solubility thermodynamic at 24 h [1, 4] read?
A: 16 µg/mL

Q: And the “pH 6.5 FaSSCoF Solubility Run 2” value [1]?
A: 0.015 mg/mL

Q: And the “Original Purity” value [2, 5]?
A: 98.1%

Q: What about the Osmolality [2, 5] of the same compound?
A: 314 mOsm/kg

Q: What about the pH [2, 5] of the same compound?
A: 7.05

Q: And the “Purity at week n = 1” value [2, 6]?
A: 98.2%

Q: What about the “Purity at week n = 2” value [2, 6] of the same compound?
A: 98.1% and 98.0%

Q: And the “Purity at week n = 4” value [2, 6]?
A: 97.9% and 98.0%

Q: And the “Purity at week n = 1” value [2, 7]?
A: 98.0%

Q: And the “Purity at week n = 2” value [2, 7]?
A: 97.7% and 97.6%

Q: And the “Purity at week n = 4” value [2, 7]?
A: 97.2% and 97.4%

Q: What about the “Purity at week n = 4” value ([2]; stored at 40 ° C., listed as Example 1, hydrochloride salt) of the same compound?
A: 79.2% and 80.4%

Q: With `COc1cc(Nc2cc(Oc3ccc(NC(=O)Nc4cc(C(C)(C)C)cc(NS(C)(=O)=O)c4OC)c4ccccc34)ccn2)ccc1C(=O)O` [1 (sodium salt), 4-((4-((4-(3-(5-(tert-Butyl)-2-methoxy-3-(methylsulfonamido)phenyl)ureido)naphthalen-1-yl)oxy)pyridin-2-yl)amino)-2-methoxybenzoic acid] as the compound, how does the solubility thermodynamic at 24 h [1, 4] read?
A: 31 µg/mL

Q: What about the “pH 6.5 FaSSCoF Solubility Run 2” value [1] of the same compound?
A: 0.032 mg/mL

Q: And the “pH 6.5 FaSSCoF Solubility Run 3” value [1]?
A: 0.020 mg/mL

Q: What about the “pH 6.5 FaSSCoF Solubility Run 4” value [1] of the same compound?
A: 0.025 mg/mL

Q: What about the concentration at 0.5 h [3, 8] of the same compound?
A: 44.9 ng/mL

Q: And the concentration at 1 h [3, 8]?
A: 49.2 ng/mL

Q: What about the concentration at 2 h [3, 8] of the same compound?
A: 13 ng/mL

Q: What about the concentration at 4 h [3, 8] of the same compound?
A: 5.2 ng/mL

Q: What about the concentration at 6 h [3, 8] of the same compound?
A: 1.9 ng/mL

Q: And the concentration at 8 h [3, 8]?
A: 0.6 ng/mL

Q: What about the concentration at 12 h [3, 8] of the same compound?
A: 5.3 ng/mL

Q: What about the concentration at 24 h [3, 8] of the same compound?
A: 0 ng/mL

Q: What about the concentration at 0.5 h [3, 9] of the same compound?
A: 4.3 ng/g

Q: And the concentration at 1 h [3, 9]?
A: 9.3 ng/g

Q: What about the concentration at 2 h [3, 9] of the same compound?
A: 52.4 ng/g

Q: What about the concentration at 4 h [3, 9] of the same compound?
A: 10400 ng/g

Q: And the concentration at 6 h [3, 9]?
A: 4050 ng/g

Q: And the concentration at 8 h [3, 9]?
A: 12900 ng/g

Q: What about the concentration at 12 h [3, 9] of the same compound?
A: 535 ng/g

Q: And the concentration at 24 h [3, 9]?
A: 41.4 ng/g

Q: What about the “Original Purity” value [2, 10] of the same compound?
A: 98.6% and 98.5%

Q: What about the Osmolality [2, 10] of the same compound?
A: 310 mOsm/kg

Q: And the pH [2, 10]?
A: 7.00

Q: What about the “Purity at week n = 1” value [2, 11] of the same compound?
A: 98.2% and 98.4%

Q: And the “Purity at week n = 2” value [2, 11]?
A: 98.4% and 98.5%

Q: And the “Purity at week n = 4” value [2, 11]?
A: 98.3% and 98.4%

Q: What about the “Purity at week n = 1” value [2, 12] of the same compound?
A: 98.4% and 98.5%

Q: What about the “Purity at week n = 2” value [2, 12] of the same compound?
A: 98.1%

Q: And the “Purity at week n = 4” value [2, 12]?
A: 97.6%

Q: And the “Purity at week n = 4” value ([2]; stored at 40 ° C., listed as Example 1, sodium salt)?
A: 76.0% and 73.7%
